What was measured:
[1] = refractive index (Na D-line) (dimensionless); settings: 298.15 K; 101.33 kPa; Liquid; Standard Abbe refractometry
[2] = for surface tension liquid-gas: Maximal bubble pressure; for vapor or sublimation pressure: Closed cell (Static) method
[3] = xn = mol fraction of the nth substance listed; settings: 298.15 K, Maximal bubble pressure

Cc1ccc(C)o1 [2,5-dimethylfuran]
Settings	refractive index
[1]	1.44012

Settings	surface tension liquid-gas [mN/m]
[2], 298.15 K	25.1

Settings	mass density [kg/m3]
[2], 298.15 K, 101.33 kPa, Liquid, Vibrating tube method	896.54

[2], Liquid
Settings	vapor or sublimation pressure [kPa]
345.2 K	50
357.18 K	75
364.36 K	94
366.83 K	101.33

Cc1ccc(C)o1 [2,5-dimethylfuran] + CCO
[3]
Settings	surface tension liquid-gas [mN/m]
x2 = 0	25.1
x2 = 0.049	24.96
x2 = 0.09	24.89
x2 = 0.176	24.68
x2 = 0.29	24.38
x2 = 0.386	24.22
x2 = 0.492	23.93
x2 = 0.594	23.73
x2 = 0.701	23.4
x2 = 0.804	23.02
x2 = 0.915	22.73
x2 = 0.963	22.5

CCO [ethanol]
Settings	refractive index
[1]	1.36068

Settings	surface tension liquid-gas [mN/m]
[2], 298.15 K	22.1

[2], Liquid
Settings	vapor or sublimation pressure [kPa]
323.51 K	30.01
326.79 K	35.01
329.68 K	40.01
332.27 K	45.01
334.57 K	50
334.63 K	50.01
336.8 K	55.01
338.81 K	60.01
340.68 K	65.01
342.43 K	70.01
344.02 K	75
344.09 K	75.01
345.64 K	80.01
347.13 K	85.01
348.54 K	90.01
349.56 K	94
349.89 K	95.01
351.51 K	101.33
351.68 K	102.01

CCO [ethanol] + Cc1ccc(C)o1
Settings	surface tension liquid-gas [mN/m]
[3], x1 = 1	22.1

— the NIST ThermoML archive (doi:10.1021/je400683g)
